From patent US12643871B2, “Aryl formamide compound containing chiral sulfur oxide or salt thereof, preparation method, herbicidal composition and use thereof” (Qingdao Kingagroot Chemical Compound Co., Ltd., priority 2019, dated 2026)

Legend:
Format in all cases: in vivo
Abutilon theophrasti = assay: Comparison experiment (post-emergence) against racemate / S configuration; settings: Abutilon theophrasti (3.5 leaf), 16DAA
Leptochloa chinensis = assay: as above; settings: Leptochloa chinensis (4.5 leaf), 16DAA
Green Setaria viridis = assay: as above; settings: for Results of comparison experiment (16DAA), weed control: Setaria viridis (4 leaf)
Alopecurus japonicas = assay: as above; settings: Table 6, post-seedling test conditions
Summary of the method: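 Weeds sown in soil-filled pots, covered with 0.5-2 cm soil and grown in greenhouse; sprayed at 2-leaf stage (2 weeks after sowing) with compound in acetone/Tween 80 plus 1.5 liter/ha methyl oleate concentrate. Doses 500–15 g/ha; fresh weight control rated after 15 days, mean of three repeats.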

Digitaria sanguinalis [1] = assay: as above; settings: Table 6, post-seedling test conditions
Corn-Zhengdan 958 = assay: Comparison experiment (post-emergence, Table 7), crop safety on corn; settings: Corn-Zhengdan 958 (3.5 leaf)
Excerpt: (§1) If there is no clear marker, the post-seedling test conditions are the same as above, and the experimental results are shown in Tables 4-7.

Digitaria sanguinalis [2] = assay: Comparison experiment (post-emergence) against racemate / S configuration; settings: Digitaria sanguinalis (3.5 leaf), 16DAA
Echinochloa crusgali = assay: Comparison experiment (post-emergence, Table 7); settings: Echinochloa crusgali (3 leaf)
Excerpt: as §1

Capsella bursa-pastoris = assay: Comparison experiment (post-emergence, Table 7); settings: Capsella bursa-pastoris (10-11 leaf)
Excerpt: as §1

Sinapis arvensis = assay: Comparison experiment (post-emergence, Table 7); settings: Sinapis arvensis (3.5 leaf)
Excerpt: as §1

Veronica didyma = assay: Comparison experiment (post-emergence, Table 7); settings: Veronica didyma (2 branches)
Excerpt: as §1

Amaranthus retroflexus = assay: Comparison experiment (post-emergence, Table 7); settings: Amaranthus retroflexus (6 leaf)
Excerpt: as §1

Descurainia sophia = assay: Comparison experiment (post-emergence, Table 7); settings: Descurainia sophia (12 leaf)
Excerpt: as §1

Malachium aquaticum = assay: Comparison experiment (post-emergence, Table 7); settings: Malachium aquaticum (2 branches)
Excerpt: as §1

Galium aparine = assay: Comparison experiment (post-emergence, Table 7); settings: Galium aparine (5 branches)
Excerpt: as §1

CC[S+]([O-])c1c(C(F)(F)F)ccc(C(=O)Nc2nnc(C)o2)c1SC (centres unmarked) [Control Compound A′, reference compound]
20%: Results of comparison experiment (16DAA), weed control (Abutilon theophrasti; 6 g/ha) | Results of comparison experiment (16DAA), weed control (Leptochloa chinensis; 48 g/ha) | Results of comparison experiment, Alopecurus japonicas (120 g/ha) (Alopecurus japonicas) | Results of comparison experiment (16DAA), weed control (Digitaria sanguinalis [2]; 12 g/ha) | Results of comparison experiment (16DAA), weed control (Echinochloa crusgali; 6 g/ha) | Results of comparison experiment (16DAA), weed control (Capsella bursa-pastoris; 24 g/ha) | Results of comparison experiment (16DAA), weed control (Sinapis arvensis; 12 g/ha) | Results of comparison experiment (16DAA), weed control (Veronica didyma; 12 g/ha) | Results of comparison experiment (16DAA), weed control (Veronica didyma; 24 g/ha) | Results of comparison experiment (16DAA), weed control (Veronica didyma; 48 g/ha) | Results of comparison experiment (16DAA), weed control (Descurainia sophia; 12 g/ha) | Results of comparison experiment (16DAA), weed control (Malachium aquaticum; 12 g/ha)
10%: Results of comparison experiment (16DAA), weed control (Abutilon theophrasti; 3 g/ha) | Results of comparison experiment (16DAA), weed control (Leptochloa chinensis; 24 g/ha) | Results of comparison experiment (16DAA), weed control (Green Setaria viridis; 12 g/ha) | Results of comparison experiment (16DAA), weed control (Digitaria sanguinalis [2]; 3 g/ha) | Results of comparison experiment (16DAA), weed control (Digitaria sanguinalis [2]; 6 g/ha) | Results of comparison experiment (16DAA), weed control (Echinochloa crusgali; 3 g/ha) | Results of comparison experiment (16DAA), weed control (Capsella bursa-pastoris; 6 g/ha) | Results of comparison experiment (16DAA), weed control (Capsella bursa-pastoris; 12 g/ha) | Results of comparison experiment (16DAA), weed control (Veronica didyma; 3 g/ha) | Results of comparison experiment (16DAA), weed control (Veronica didyma; 6 g/ha) | Results of comparison experiment (16DAA), weed control (Amaranthus retroflexus; 3 g/ha) | Results of comparison experiment (16DAA), weed control (Amaranthus retroflexus; 6 g/ha) | Results of comparison experiment (16DAA), weed control (Descurainia sophia; 6 g/ha) | Results of comparison experiment (16DAA), weed control (Malachium aquaticum; 3 g/ha) | Results of comparison experiment (16DAA), weed control (Malachium aquaticum; 6 g/ha) | Results of comparison experiment (16DAA), weed control (Galium aparine; 48 g/ha)
50%: Results of comparison experiment (16DAA), weed control (Abutilon theophrasti; 48 g/ha) | Results of comparison experiment (16DAA), weed control (Green Setaria viridis; 48 g/ha) | Results of comparison experiment, Digitaria sanguinalis (30 g/ha) (Digitaria sanguinalis [1]) | Results of comparison experiment (16DAA), weed control (Echinochloa crusgali; 48 g/ha) | Results of comparison experiment (16DAA), weed control (Sinapis arvensis; 48 g/ha) | Results of comparison experiment (16DAA), weed control (Amaranthus retroflexus; 24 g/ha) | Results of comparison experiment (16DAA), weed control (Amaranthus retroflexus; 48 g/ha) | Results of comparison experiment (16DAA), weed control (Malachium aquaticum; 48 g/ha)
40%: Results of comparison experiment (16DAA), weed control (Abutilon theophrasti; 24 g/ha) | Results of comparison experiment (16DAA), weed control (Green Setaria viridis; 24 g/ha) | Results of comparison experiment (16DAA), weed control (Echinochloa crusgali; 24 g/ha) | Results of comparison experiment (16DAA), weed control (Sinapis arvensis; 24 g/ha) | Results of comparison experiment (16DAA), weed control (Amaranthus retroflexus; 12 g/ha) | Results of comparison experiment (16DAA), weed control (Descurainia sophia; 48 g/ha)
0%: Results of comparison experiment (16DAA), weed control (Leptochloa chinensis; 3 g/ha) | Results of comparison experiment (16DAA), weed control (Leptochloa chinensis; 6 g/ha) | Results of comparison experiment (16DAA), weed control (Leptochloa chinensis; 12 g/ha) | Results of comparison experiment (16DAA), weed control (Green Setaria viridis; 3 g/ha) | Results of comparison experiment (16DAA), weed control (Green Setaria viridis; 6 g/ha) | Results of comparison experiment (16DAA), crop damage (Corn-Zhengdan 958; 3 g/ha) | Results of comparison experiment (16DAA), crop damage (Corn-Zhengdan 958; 6 g/ha) | Results of comparison experiment (16DAA), crop damage (Corn-Zhengdan 958; 12 g/ha) | Results of comparison experiment (16DAA), crop damage (Corn-Zhengdan 958; 24 g/ha) | Results of comparison experiment (16DAA), crop damage (Corn-Zhengdan 958; 48 g/ha) | Results of comparison experiment (16DAA), weed control (Capsella bursa-pastoris; 3 g/ha) | Results of comparison experiment (16DAA), weed control (Sinapis arvensis; 3 g/ha) | Results of comparison experiment (16DAA), weed control (Sinapis arvensis; 6 g/ha) | Results of comparison experiment (16DAA), weed control (Descurainia sophia; 3 g/ha) | Results of comparison experiment (16DAA), weed control (Galium aparine; 3 g/ha) | Results of comparison experiment (16DAA), weed control (Galium aparine; 6 g/ha) | Results of comparison experiment (16DAA), weed control (Galium aparine; 12 g/ha) | Results of comparison experiment (16DAA), weed control (Galium aparine; 24 g/ha)
30%: Results of comparison experiment (16DAA), weed control (Abutilon theophrasti; 12 g/ha) | Results of comparison experiment (16DAA), weed control (Digitaria sanguinalis [2]; 24 g/ha) | Results of comparison experiment (16DAA), weed control (Digitaria sanguinalis [2]; 48 g/ha) | Results of comparison experiment (16DAA), weed control (Echinochloa crusgali; 12 g/ha) | Results of comparison experiment (16DAA), weed control (Capsella bursa-pastoris; 48 g/ha) | Results of comparison experiment (16DAA), weed control (Descurainia sophia; 24 g/ha) | Results of comparison experiment (16DAA), weed control (Malachium aquaticum; 24 g/ha)
90%: Results of comparison experiment, Green Setaria viridis (30 g/ha) (Green Setaria viridis; 30 g/ha, Table 6, post-seedling test conditions)
